# Laboratory results from patent US20210254272A1, “TEXTILES HAVING ANTIMICROBIAL PROPERTIES” (Livinguard AG, priority 2015, published 2021).
# Assay: Leaching test: 100 g fabric soaked in 10 liters stagnant distilled water, 3 days (72 hours)
# Type: physicochemical
# Details: for Leaching of active ingredients / Leaching Test-Leaching of active ingredients: pad process; for Leaching of active ingredients: cured 180° C. 2 min; for Leaching Test-Leaching of active ingredients: 2 min
# Procedure: (§1) The test procedure for leaching was as follows: 100 g (grams) of fabric as well as control fabrics were soaked in 10 liters of stagnant distilled water in a closed wide mouth jar. After 3 days (72 hours), the water samples were tested for leached substances as per standard analytical methods.
# as §1, with “methods. A weight of 100 g fabric was chosen because in the preferred embodiment of the water filter as described further below, each filter comprises a strip of fabric with 210 g/m^2, 3 meters long and 0.16 meters wide, which corresponds to 100 g of fabric.” for “methods.”
compound,measurement,setting,value
"CCCCCCCCCCCCCCCCCC[N+](C)(C)CCC[Si](OC)(OC)OC [Organosilane, dimethyloctadecyl[3-(trimethoxysilyl)propyl] ammonium chloride]",Leaching of active ingredients (in ppm),"exhaust 80° C., 1% o.w.f, 60 min, curing dwell time at 190° C. (title): 3.0 min",34 ppm
same,Leaching of active ingredients (in ppm),"exhaust 80° C., 60 min, dosage 1% o.w.f (test up to 5% o.w.f)",3 ppm
same,Leaching of active ingredients (in ppm),"exhaust 80° C., 60 min, dosage 2% o.w.f",22 ppm
same,Leaching of active ingredients (in ppm),"exhaust 80° C., 60 min, dosage 3% o.w.f",38 ppm
same,Leaching of active ingredients (in ppm),"exhaust 80° C., 60 min, dosage 4% o.w.f",52 ppm
same,Leaching of active ingredients (in ppm),"exhaust 80° C., 60 min, dosage 5% o.w.f",72 ppm
same,Leaching of active ingredients (in ppm),"exhaust 80 ° C., solution dosage 1% o.w.f, process time 10 min",40 ppm
same,Leaching of active ingredients (in ppm),"exhaust 80 ° C., solution dosage 1% o.w.f, process time 20 min",29 ppm
same,Leaching of active ingredients (in ppm),"exhaust 80 ° C., solution dosage 1% o.w.f, process time 30 min",25 ppm
same,Leaching of active ingredients (in ppm),"exhaust 80 ° C., solution dosage 1% o.w.f, process time 40 min",18 ppm
same,Leaching of active ingredients (in ppm),"exhaust 80 ° C., solution dosage 1% o.w.f, process time 50 min",15 ppm
same,Leaching of active ingredients (in ppm),"exhaust 80 ° C., solution dosage 1% o.w.f, process time 55 min",6 ppm
same,Leaching of active ingredients (in ppm),"exhaust 80 ° C., solution dosage 1% o.w.f, process time 60 min",2 ppm
same,Leaching of active ingredients (in ppm),"exhaust 80 ° C., solution dosage 1% o.w.f, process time 70 min",3 ppm
same,Leaching of active ingredients (in ppm),"exhaust 80 ° C., solution dosage 1% o.w.f, process time 80 min",4 ppm
same,Leaching of active ingredients (in ppm),"exhaust 80 ° C., solution dosage 1% o.w.f, process time 90 min",7 ppm
same,limit on the quantity of the agent that can be adhered to the textile in a non-leaching or substantially non-leaching manner,from Experimental examples I.1 and I.4,about 0.7 % o.w.f.
same,Leaching of active ingredients,mixture 1 gm/lit each,11 ppm
same,Leaching of active ingredients,"mixture 1 gm/lit each, after Washing",0.2 ppm
same,Leaching of active ingredients,mixture 5 gm/lit each,22 ppm
same,Leaching of active ingredients,"mixture 5 gm/lit each, after Washing",0.5 ppm
same,Leaching of active ingredients,mixture 10 gm/lit each,32 ppm
same,Leaching of active ingredients,"mixture 10 gm/lit each, after Washing",0.7 ppm
same,Leaching Test-Leaching of active ingredients,"single agent 5 gm/lit, curing 120° C.",8 ppm
same,Leaching Test-Leaching of active ingredients,"single agent 5 gm/lit, curing 140° C.",6 ppm
same,Leaching Test-Leaching of active ingredients,"single agent 5 gm/lit, curing 150° C.",5 ppm
same,Leaching Test-Leaching of active ingredients,"single agent 5 gm/lit, curing 160° C.",3 ppm
same,Leaching Test-Leaching of active ingredients,"single agent 5 gm/lit, curing 180° C.",1 ppm
same,Leaching Test-Leaching of active ingredients,"single agent 10 gm/lit, curing 120° C.",17 ppm
same,Leaching Test-Leaching of active ingredients,"single agent 10 gm/lit, curing 140° C.",13 ppm
same,Leaching Test-Leaching of active ingredients,"single agent 10 gm/lit, curing 150° C.",10 ppm
same,Leaching Test-Leaching of active ingredients,"single agent 10 gm/lit, curing 160° C.",9 ppm
same,Leaching Test-Leaching of active ingredients,"single agent 10 gm/lit, curing 180° C.",1 ppm
same,Leaching of active ingredient (in ppm),"solution dosage 0.10% o.w.f, exhaust temperature 40° C., process time 60 min",0 ppm
same,Leaching of active ingredient (in ppm),"solution dosage 0.10% o.w.f, exhaust temperature 60° C., process time 60 min",0 ppm
same,Leaching of active ingredient (in ppm),"solution dosage 0.10% o.w.f, exhaust temperature 65° C., process time 60 min",0 ppm
same,Leaching of active ingredient (in ppm),"solution dosage 0.10% o.w.f, exhaust temperature 70° C., process time 60 min",0 ppm
same,Leaching of active ingredient (in ppm),"solution dosage 0.10% o.w.f, exhaust temperature 75° C., process time 60 min",0 ppm
same,Leaching of active ingredient (in ppm),"solution dosage 0.10% o.w.f, exhaust temperature 80° C., process time 60 min",0 ppm
same,Leaching of active ingredient (in ppm),"solution dosage 0.10% o.w.f, exhaust temperature 85° C., process time 60 min",1 ppm
same,Leaching of active ingredient (in ppm),"solution dosage 0.10% o.w.f, exhaust temperature 90° C., process time 60 min",2 ppm
same,Leaching of active ingredient (in ppm),"solution dosage 0.10% o.w.f, exhaust temperature 95° C., process time 60 min",3 ppm
same,Leaching of active ingredient (in ppm),"solution dosage 0.20% o.w.f, exhaust temperature 40° C., process time 60 min",0 ppm
same,Leaching of active ingredient (in ppm),"solution dosage 0.20% o.w.f, exhaust temperature 60° C., process time 60 min",0 ppm
same,Leaching of active ingredient (in ppm),"solution dosage 0.20% o.w.f, exhaust temperature 65° C., process time 60 min",0 ppm
same,Leaching of active ingredient (in ppm),"solution dosage 0.20% o.w.f, exhaust temperature 70° C., process time 60 min",0 ppm
same,Leaching of active ingredient (in ppm),"solution dosage 0.20% o.w.f, exhaust temperature 75° C., process time 60 min",0 ppm
same,Leaching of active ingredient (in ppm),"solution dosage 0.20% o.w.f, exhaust temperature 80° C., process time 60 min",0 ppm
same,Leaching of active ingredient (in ppm),"solution dosage 0.20% o.w.f, exhaust temperature 85° C., process time 60 min",3 ppm
same,Leaching of active ingredient (in ppm),"solution dosage 0.20% o.w.f, exhaust temperature 90° C., process time 60 min",3 ppm
same,Leaching of active ingredient (in ppm),"solution dosage 0.20% o.w.f, exhaust temperature 95° C., process time 60 min",4 ppm
same,Leaching of active ingredient (in ppm),"solution dosage 0.50% o.w.f, exhaust temperature 40° C., process time 60 min",0 ppm
same,Leaching of active ingredient (in ppm),"solution dosage 0.50% o.w.f, exhaust temperature 60° C., process time 60 min",2 ppm
same,Leaching of active ingredient (in ppm),"solution dosage 0.50% o.w.f, exhaust temperature 65° C., process time 60 min",1 ppm
same,Leaching of active ingredient (in ppm),"solution dosage 0.50% o.w.f, exhaust temperature 70° C., process time 60 min",1 ppm
same,Leaching of active ingredient (in ppm),"solution dosage 0.50% o.w.f, exhaust temperature 75° C., process time 60 min",1 ppm
same,Leaching of active ingredient (in ppm),"solution dosage 0.50% o.w.f, exhaust temperature 80° C., process time 60 min",1 ppm
same,Leaching of active ingredient (in ppm),"solution dosage 0.50% o.w.f, exhaust temperature 85° C., process time 60 min",4 ppm
same,Leaching of active ingredient (in ppm),"solution dosage 0.50% o.w.f, exhaust temperature 90° C., process time 60 min",5 ppm
same,Leaching of active ingredient (in ppm),"solution dosage 0.50% o.w.f, exhaust temperature 95° C., process time 60 min",6 ppm
same,Leaching of active ingredient (in ppm),"solution dosage 0.80% o.w.f, exhaust temperature 40° C., process time 60 min",0 ppm
same,Leaching of active ingredient (in ppm),"solution dosage 0.80% o.w.f, exhaust temperature 60° C., process time 60 min",3 ppm
same,Leaching of active ingredient (in ppm),"solution dosage 0.80% o.w.f, exhaust temperature 65° C., process time 60 min",3 ppm
same,Leaching of active ingredient (in ppm),"solution dosage 0.80% o.w.f, exhaust temperature 70° C., process time 60 min",2 ppm
same,Leaching of active ingredient (in ppm),"solution dosage 0.80% o.w.f, exhaust temperature 75° C., process time 60 min",1 ppm
same,Leaching of active ingredient (in ppm),"solution dosage 0.80% o.w.f, exhaust temperature 80° C., process time 60 min",1 ppm
same,Leaching of active ingredient (in ppm),"solution dosage 0.80% o.w.f, exhaust temperature 85° C., process time 60 min",5 ppm
same,Leaching of active ingredient (in ppm),"solution dosage 0.80% o.w.f, exhaust temperature 90° C., process time 60 min",6 ppm
same,Leaching of active ingredient (in ppm),"solution dosage 0.80% o.w.f, exhaust temperature 95° C., process time 60 min",8 ppm
same,Leaching of active ingredient (in ppm),"solution dosage 1.00% o.w.f, exhaust temperature 40° C., process time 60 min",0 ppm
same,Leaching of active ingredient (in ppm),"solution dosage 1.00% o.w.f, exhaust temperature 60° C., process time 60 min",6 ppm
same,Leaching of active ingredient (in ppm),"solution dosage 1.00% o.w.f, exhaust temperature 65° C., process time 60 min",6 ppm
same,Leaching of active ingredient (in ppm),"solution dosage 1.00% o.w.f, exhaust temperature 70° C., process time 60 min",3 ppm
same,Leaching of active ingredient (in ppm),"solution dosage 1.00% o.w.f, exhaust temperature 75° C., process time 60 min",2 ppm
same,Leaching of active ingredient (in ppm),"solution dosage 1.00% o.w.f, exhaust temperature 80° C., process time 60 min",1 ppm
same,Leaching of active ingredient (in ppm),"solution dosage 1.00% o.w.f, exhaust temperature 85° C., process time 60 min",7 ppm
same,Leaching of active ingredient (in ppm),"solution dosage 1.00% o.w.f, exhaust temperature 90° C., process time 60 min",9 ppm
same,Leaching of active ingredient (in ppm),"solution dosage 1.00% o.w.f, exhaust temperature 95° C., process time 60 min",10 ppm
